{
  "source": "patent US4166125A",
  "about": "“2-Oxo-phenylbutanoic acid derivatives” (Grelan Pharmaceutical Co., Ltd., priority 1977, dated 1979)",
  "key": {"[1]": {"tested_on": "pain threshold of hind paws (Brewer's yeast)", "assay": "Analgesic activity, Randall and Selitto method (oral administration)", "assay_type": "in vivo, rat (Sprague-Dawley strain)", "experimental": "Randall and Selitto method\nAccording to a method conforming to Randall, L. O. and Selitto, J. J. [Archives Internationales de Pharmacodynamie et de Therapie, 111, 409, (1957)], 0.1 ml of 10% Brewer's yeast suspension in physiological saline was injected subcutaneously into the plantar surface of the right hind paws of 5 male rats in each group (Sprague-Dawley strain) weighing 90 to 110 g. 2 Hours after administration of the yeast suspension, each test compound suspended in 0.3% CMC-Na solution was orally administered to the rats in an amount of 1.0 ml per 100 g of body weight of the rat. 30 Minutes, 60 minutes and 120 minutes after administration of the test compounds, threshold values of left and right hind paws of the rats were measured by an electric pressure device made by Daiwa Kinzoku Co., Ltd. (Japan). The change of threshold was obtained by comparing the pain threshold obtained in a group after the yeast injection with that obtained before the yeast injection, in the same group as above. Increasing percent of pain threshold of the test compound was calculated on the basis of the mean changes of threshold of the test group and of that of the control group. Rats of the control group were administered orally only 0.3% CMC-Na solution.\nAccording to the Litchfield-Wilcoxon method [The Journal of Pharmacology and Experimental Therapeutics, 96, 96, (1949)], ED50 value was calculated as follows on the basis of the increasing percent of pain threshold;"}, "[2]": {"tested_on": "febrile body temperature (Brewer's yeast)", "assay": "Antipyretic activity (oral administration)", "assay_type": "in vivo, rat (Sprague-Dawley strain)", "details": "250 mg/Kg oral", "experimental": "Antipyretic activity (oral administration)\nAccording to a method conforming to Winter, C. A. et al [The Journal of Pharmacology and Experimental Therapeutics 133, 117, (1961)], 20% Brewer's yeast suspension in physiological saline was injected subcutaneously to 5 male rats in each group (Sprague-Dawley strain) weighing 200 to 250 g in an amount of 1.0 ml per 100 g of body weight of the rat. After fasting for 18 hours, each test compound suspended in 1% gum arabic solution was administered orally to the rats in an amount of 1.0 ml per 100 g of body weight. Then, the rectal temperature of the rats was taken."}, "adjuvant arthritis": {"tested_on": "adjuvant arthritis", "assay": "Inhibition to adjuvant arthritis (oral administration)", "assay_type": "in vivo, rat (Sprague-Dawley strain)", "details": "for Increase in body weight / Weight of the organs: Adrenal glands / Weight of the organs: Spleen / Weight of the organs: Thymus: once a day for 7 days", "experimental": "Inhibition to adjuvant arthritis.\nAccording to a method conforming to Fujihira et al [Oyo Yakuri, 5, 169, (1971)], liquid paraffin suspension of Mycobacterium butiricum (hereinafter abbreviated as adjuvant) was injected subcutaneously to right hind paws of male rats (Spraque-Dawley strain) weighing 150 to 170 g in an amount of 0.3 mg/0.05 ml/rat. 14 Days after adjuvant injection, the rats, paws of which swelled to a similar degree, were selected and they were separated into groups. From the 15th day after adjuvant injection, each test compound suspended in 0.3% CMC-Na solution was orally administered once a day for 7 days to the 7 rats in each group in the dose shown in the following table 2.\nThe 16th, 19th and 22nd days after adjuvant injection the volume of left hand paws (i.e. paws not treated with the adjuvant) of the rats and their body weight were measured. Inhibition percent to the arthritis (edema) is calculated according to the same equation as that used in Experiment 1, and the value of ED40 is calculated on the basis of the inhibition percent. Then the rats were sacrificed with ether and the weight of their thymus, adrenal glands and spleen was determined."}, "[3]": {"tested_on": "writhing syndrome due to acetic acid", "assay": "Analgesic activity, stretching method (oral administration)", "assay_type": "in vivo, mouse (ddY-strain)", "experimental": "The experiment was carried out according to a method conforming to Koster R. et al [Federation Proceedings 18, 412, (1960)]. […] 30 Minutes after administration of the test compound, 0.6% acetic acid aqueous solution was injected intraperitoneally to the mice in an amount of 0.1 ml per 10 g of body weight of the mouse, and then frequency of writhing syndrome due to acetic acid was counted for 20 minutes. Inhibition percent to the writhing syndrome was calculated in comparison with frequency of writhing syndrome counted on mice of a control group, to which only 1% gum arabic solution was orally administered."}, "carrageenin edema": {"tested_on": "carrageenin edema", "assay": "Inhibitory effect on carrageenin edema (oral administration)", "assay_type": "in vivo, rat (Sprague-Dawley strain)", "experimental": "Inhibitory effect on carrageenin edema.\nThe experiment was carried out according to a method conforming to Van Arman, C. […] One hour after the administration of the test compound, 0.1 ml of 1% carrageenin solution in physiological saline was injected subcutaneously into the plantar sarface of the right hind paws of the rats. One hour after injection of carrageenin, the volume of the injected paws was measured hourly for 4 hours. Inhibition percent to carrageenin edema (%)* was calculated in comparison with the volume of paws of rats of a control group, to which only 0.3% CMC-Na solution was orally administered. [formula]"}, "rats": {"tested_on": "rats", "assay": "Acute toxicity (2) (oral administration)", "assay_type": "in vivo", "details": "rats", "experimental": "(§1) After administration of the compound, the number of rats that died during 7 days was observed, and LD50 value was calculated on the basis of the mortality."}, "[4]": {"assay": "Acute toxicity (2) (oral administration)", "assay_type": "in vivo", "details": "in vivo; rat, oral, 7 days", "experimental": "as §1"}, "[5]": {"tested_on": "gross behaviour of the mice", "assay": "Gross behaviour (1) (oral administration), Irwin's multi-dimensional observation", "details": "oral, 500, 1000, 2000 and 4000 mg/Kg, 4 hours", "method": "In 1% gum arabic solution was suspended 2-oxo-3-[4-(1-oxo-2-isoindolinyl)phenyl]butanamide at a concentration of 20%. […] The dosages of the compound were 500, 1000, 2000 and 4000 mg/Kg.\nTo mice of a control group was administered orally only 1% gum arabic solution."}, "[6]": {"details": "oral, 500, 1000, 2000 and 4000 mg/Kg, 7 days"}},
  "data": [
    {"smiles": "CC(C(=O)C(N)=O)c1ccc(N2Cc3ccccc3C2=O)cc1", "note": "(centres unmarked) [2-oxo-3-[4-(1-oxo-2-isoindolinyl)phenyl]butanamide]", "values": [
      {"measurement": "Increasing percent of pain threshold", "setting": "[1]; 25 mg/Kg oral, 30 minutes after administration", "result": "15.6 ± 10.3", "unit": "%"},
      {"measurement": "Increasing percent of pain threshold", "setting": "[1]; 25 mg/Kg oral, 60 minutes after administration", "result": "14.1 ± 13.7", "unit": "%"},
      {"measurement": "Increasing percent of pain threshold", "setting": "[1]; 25 mg/Kg oral, 120 minutes after administration", "result": "22.1 ± 18.5", "unit": "%"},
      {"measurement": "Increasing percent of pain threshold", "setting": "[1]; 50 mg/Kg oral, 30 minutes after administration", "result": "46.9 ± 4.6", "unit": "%"},
      {"measurement": "Increasing percent of pain threshold", "setting": "[1]; 50 mg/Kg oral, 60 minutes after administration", "result": "32.7 ± 5.9", "unit": "%"},
      {"measurement": "Increasing percent of pain threshold", "setting": "[1]; 50 mg/Kg oral, 120 minutes after administration", "result": "48.6 ± 9.0", "unit": "%"},
      {"measurement": "Increasing percent of pain threshold", "setting": "[1]; 100 mg/Kg oral, 30 minutes after administration", "result": "46.1 ± 6.6", "unit": "%"},
      {"measurement": "Increasing percent of pain threshold", "setting": "[1]; 100 mg/Kg oral, 60 minutes after administration", "result": "32.4 ± 7.0", "unit": "%"},
      {"measurement": "Increasing percent of pain threshold", "setting": "[1]; 100 mg/Kg oral, 120 minutes after administration", "result": "39.0 ± 7.3", "unit": "%"},
      {"measurement": "Increasing percent of pain threshold", "setting": "[1]; 200 mg/Kg oral, 30 minutes after administration", "result": "57.3 ± 14.8", "unit": "%"},
      {"measurement": "Increasing percent of pain threshold", "setting": "[1]; 200 mg/Kg oral, 60 minutes after administration", "result": "39.7 ± 8.9", "unit": "%"},
      {"measurement": "Increasing percent of pain threshold", "setting": "[1]; 200 mg/Kg oral, 120 minutes after administration", "result": "39.6 ± 6.5", "unit": "%"},
      {"measurement": "ED50", "setting": "[1]; Rattus norvegicus, oral, Litchfield-Wilcoxon method, from increasing percent of pain threshold", "result": 100, "unit": "mg/kg"},
      {"measurement": "Drop of febrile body temperature", "setting": "[2]", "result": 1, "unit": "°C"},
      {"measurement": "Inhibition to adjuvant arthritis", "setting": "adjuvant arthritis; 25 mg/Kg oral, 1st day", "result": 24.0, "unit": "%"},
      {"measurement": "Inhibition to adjuvant arthritis", "setting": "adjuvant arthritis; 25 mg/Kg oral, 4th day", "result": 25.1, "unit": "%"},
      {"measurement": "Inhibition to adjuvant arthritis", "setting": "adjuvant arthritis; 25 mg/Kg oral, 7th day", "result": 35.2, "unit": "%"},
      {"measurement": "Increase in body weight", "setting": "adjuvant arthritis; 25 mg/Kg oral", "result": 28.4, "unit": "g"},
      {"measurement": "Weight of the organs: Adrenal glands", "setting": "adjuvant arthritis; 25 mg/Kg oral", "result": "12.5 ± 1.3 mg/100g of body weight"},
      {"measurement": "Weight of the organs: Spleen", "setting": "adjuvant arthritis; 25 mg/Kg oral", "result": "441.1 ± 39.6 mg/100g of body weight"},
      {"measurement": "Weight of the organs: Thymus", "setting": "adjuvant arthritis; 25 mg/Kg oral", "result": "146.0 ± 7.3 mg/100g of body weight"},
      {"measurement": "Inhibition to adjuvant arthritis", "setting": "adjuvant arthritis; 100 mg/Kg oral, 1st day", "result": 32.7, "unit": "%"},
      {"measurement": "Inhibition to adjuvant arthritis", "setting": "adjuvant arthritis; 100 mg/Kg oral, 4th day", "result": 34.5, "unit": "%"},
      {"measurement": "Inhibition to adjuvant arthritis", "setting": "adjuvant arthritis; 100 mg/Kg oral, 7th day", "result": 45.3, "unit": "%"},
      {"measurement": "Increase in body weight", "setting": "adjuvant arthritis; 100 mg/Kg oral", "result": 40.7, "unit": "g"},
      {"measurement": "Weight of the organs: Adrenal glands", "setting": "adjuvant arthritis; 100 mg/Kg oral", "result": "11.5 ± 0.7 mg/100g of body weight"},
      {"measurement": "Weight of the organs: Spleen", "setting": "adjuvant arthritis; 100 mg/Kg oral", "result": "414.2 ± 28.8 mg/100g of body weight"},
      {"measurement": "Weight of the organs: Thymus", "setting": "adjuvant arthritis; 100 mg/Kg oral", "result": "147.2 ± 15.6 mg/100g of body weight"},
      {"measurement": "Inhibition to writhing syndrome", "setting": "[3]; 100 mg/Kg oral", "result": 4, "unit": "%"},
      {"measurement": "Inhibition to writhing syndrome", "setting": "[3]; 200 mg/Kg oral", "result": 33, "unit": "%"},
      {"measurement": "Inhibition to writhing syndrome", "setting": "[3]; 400 mg/Kg oral", "result": 62, "unit": "%"},
      {"measurement": "Dose-response of inhibition to writhing syndrome", "setting": "[3]; dose range of 100 to 400 mg/Kg", "result": "clear dose-response"},
      {"measurement": "Inhibition to carrageenin edema", "setting": "carrageenin edema; 12.5 mg/Kg oral, 3 hour after administration", "result": "29.2 ± 6.4", "unit": "%"},
      {"measurement": "Inhibition to carrageenin edema", "setting": "carrageenin edema; 12.5 mg/Kg oral, 4 hour after administration", "result": "29.3 ± 4.4", "unit": "%"},
      {"measurement": "Inhibition to carrageenin edema", "setting": "carrageenin edema; 25 mg/Kg oral, 3 hour after administration", "result": "29.2 ± 9.0", "unit": "%"},
      {"measurement": "Inhibition to carrageenin edema", "setting": "carrageenin edema; 25 mg/Kg oral, 4 hour after administration", "result": "26.6 ± 8.2", "unit": "%"},
      {"measurement": "Inhibition to carrageenin edema", "setting": "carrageenin edema; 50 mg/Kg oral, 3 hour after administration", "result": "35.6 ± 3.9", "unit": "%"},
      {"measurement": "Inhibition to carrageenin edema", "setting": "carrageenin edema; 50 mg/Kg oral, 4 hour after administration", "result": "34.1 ± 1.2", "unit": "%"},
      {"measurement": "Inhibition to carrageenin edema", "setting": "carrageenin edema; 100 mg/Kg oral, 3 hour after administration", "result": "51.0 ± 8.6", "unit": "%"},
      {"measurement": "Inhibition to carrageenin edema", "setting": "carrageenin edema; 100 mg/Kg oral, 4 hour after administration", "result": "42.8 ± 6.9", "unit": "%"},
      {"measurement": "ED40", "setting": "carrageenin edema; Rattus norvegicus, oral, from inhibition percent to edema at 3 hours after administration, read-out: ED40", "result": 48, "unit": "mg/kg"},
      {"measurement": "Macroscopic observation of organs in head, thorax and abdominal cavity", "setting": "rats; after 7 days", "result": "No abnormality was observed"},
      {"measurement": "Abnormal behaviour", "setting": "rats; [6]", "result": "not observed"},
      {"measurement": "Death", "setting": "rats; [6]", "result": "not observed"},
      {"measurement": "Inhibition to increase of body weight", "setting": "rats; [6]", "result": "not observed"},
      {"measurement": "LD50 at 168 h", "setting": "[4]", "result": "> 4000", "unit": "mg/kg"},
      {"measurement": "Abnormal behaviour (depression to spontaneous activity, loss of righting reflex, tremor, convulsion, abnormal gait, loss of pinna reflex, loss of corneal reflex, abnormality of respiration)", "setting": "[5]", "result": "not observed"}
    ]}
  ]
}
